According to patent US5210193A, “Piperazine derivatives” (American Cyanamid Company, priority 1990, dated 1993):
≈ marks a conversion by molar mass, not a printed value. Read-outs that look alike come from different tables or passages of the source.

How the values were obtained:
Experiment in all cases: in vitro antibacterial MIC, agar plate dilution
Type in all cases: cell-based
[1] = system: Escherichia coli CMC 84-11; conditions: 35° C.
Experimental: (§1) The in vitro antimicrobial spectrum of the compounds of ths invention were determined by the agar plate dilution method with Mueller-Hinton agar and an inoculum of each test organism of approximately 10^4 colony forming units delivered by the Steers replicating device. The minimal inhibitory concentration (MIC) in mcg/ml is defined as the lowest concentration of test compound that inhibited visible growth after 18 hours incubation at 35° C. Results are given in Table I, with the test compounds identified by the number of their hereinafter described examples.

[2] = system: Pseudomonas aeruginosa LL-1244; conditions: 35° C.
Experimental: as §1

[3] = system: Staphylococcus aureus ATTC 29213; conditions: 35° C.
Experimental: as §1

[4] = system: Klebsiella pneumoniae AD; conditions: Klebsiella pneumoniae, 18 h, 35° C., read-out: MIC
Experimental: as §1

[5] = system: Staphylococcus epidermidis CMC 83-135; conditions: CMC83135, 18 hours, 35° C., read-out: MIC
Experimental: as §1

[6] = system: Escherichia coli CMC 84-16; conditions: Escherichia coli, CMC8416, 18 h, 35° C., read-out: MIC
Experimental: as §1

[7] = system: Staphylococcus epidermidis IO 83-58; conditions: IO8358, 18 hours, 35° C., read-out: MIC
Experimental: as §1

[8] = system: Escherichia coli ATCC 25922; conditions: 35° C.
Experimental: as §1

[9] = system: Staphylococcus aureus VGH 84-46; conditions: Staphylococcus aureus, VGH8446, 18 h, 35° C., read-out: MIC
Experimental: as §1

[10] = system: Staphylococcus aureus Smith; conditions: 35° C.
Experimental: as §1

[11] = system: Staphylococcus aureus CMC 83-127; conditions: Staphylococcus aureus, CMC83127, 18 h, 35° C., read-out: MIC
Experimental: as §1

[12] = system: Klebsiella pneumoniae MOR 84-4; conditions: Klebsiella pneumoniae, MOR844, 18 h, 35° C., read-out: MIC
Experimental: as §1

[13] = system: Staphylococcus epidermidis VGH 84-40; conditions: VGH8440, 18 hours, 35° C., read-out: MIC
Experimental: as §1

[14] = system: Streptococcus faecalis ATTC 29212; conditions: Enterococcus faecalis, ATTC29212, 18 hours, 35° C., read-out: MIC
Experimental: as §1

[15] = system: Streptococcus faecalis VGH 84-65; conditions: 35° C.
Experimental: as §1

[16] = system: Staphylococcus Spp saprophiticus VGH 84-50; conditions: 18 hours, 35° C., read-out: MIC
Experimental: as §1

[17] = system: Escherichia coli NAR 311; conditions: NAR311, 18 hours, 35° C., read-out: MIC
Experimental: as §1

[18] = system: Klebsiella oxytoca MOR 84-28; conditions: MOR8428, 18 hours, 35° C.
Experimental: as §1

[19] = system: Proteus rettgeri CMC 84-41; conditions: Providencia rettgeri, CMC8441, 18 h, 35° C., read-out: MIC
Experimental: as §1

[20] = system: Staphylococcus aureus CMC 83-128; conditions: CMC83128, 18 hours, 35° C., read-out: MIC
Experimental: as §1

[21] = system: Escherichia coli PRNT 311; conditions: PRNT311, 18 hours, 35° C., read-out: MIC
Experimental: as §1

[22] = system: Morganella morganii VGH 84-11; conditions: VGH8411, 18 hours, 35° C., read-out: MIC
Experimental: as §1

[23] = system: Enterobacter cloacae VGH 84-37; conditions: Enterobacter cloacae, VGH8437, 18 h, 35° C., read-out: MIC
Experimental: as §1

[24] = system: Serratia marcescens K 84-18; conditions: 35° C.
Experimental: as §1

[25] = system: Enterobacter cloacae K 84-10; conditions: Enterobacter cloacae, K8410, 18 h, 35° C., read-out: MIC
Experimental: as §1

[26] = system: Enterobacter aerogenes VGH 84-36; conditions: Klebsiella aerogenes, VGH8436, 18 hours, 35° C., read-out: MIC
Experimental: as §1

[27] = system: Serratia marcescens F 0-35; conditions: Serratia marcescens, F035, 18 h, 35° C., read-out: MIC
Experimental: as §1

[28] = system: Morganella morganii CMC 84-37; conditions: 35° C.
Experimental: as §1

[29] = system: Staphylococcus aureus VGH 84-45; conditions: 35° C.
Experimental: as §1

[30] = system: Pseudomonas aeruginosa VGH 84-4; conditions: 35° C.
Experimental: as §1

[31] = Escherichia coli, CMC8411, 18 h, read-out: MIC
[32] = Pseudomonas aeruginosa, LL1244, 18 h, read-out: MIC
[33] = Staphylococcus aureus, ATTC29213, 18 h, read-out: MIC
[34] = Escherichia coli, ATCC25922, 18 h, read-out: MIC
[35] = Staphylococcus aureus, 18 h, read-out: MIC
[36] = Enterococcus faecalis, VGH8465, 18 h, read-out: MIC
[37] = Serratia marcescens, K8418, 18 h, read-out: MIC
[38] = Morganella morganii, CMC8437, 18 h, read-out: MIC
[39] = Staphylococcus aureus, VGH8445, 18 h, read-out: MIC
[40] = Pseudomonas aeruginosa, VGH844, 18 h, read-out: MIC

**Q.** What does the source list for `O=C(O)c1cn(C2CC2)c2cc(N3CCNC(c4ccsc4)C3)c(F)cc2c1=O` (stereo not drawn) [Example 60]?
**A.** MIC ([1]; 18 hours): < 0.12 µg/mL; MIC ([2]; 18 hours): 4 µg/mL (≈ 9.67 µM); MIC ([3]; 18 hours): < 0.12 µg/mL; MIC [4]: < 0.12 µg/mL; MIC [5]: < 0.12 µg/mL; MIC [6]: < 0.12 µg/mL; MIC [7]: < 0.12 µg/mL; MIC ([8]; 18 hours): < 0.12 µg/mL; MIC [9]: < 0.12 µg/mL; MIC ([10]; 18 hours): < 0.12 µg/mL; MIC [11]: < 0.12 µg/mL; MIC [12]: < 0.12 µg/mL; MIC [13]: < 0.12 µg/mL; MIC [14]: < 0.12 µg/mL; MIC ([15]; 18 hours): < 0.12 µg/mL; MIC [16]: < 0.12 µg/mL; MIC [17]: 0.25 µg/mL (≈ 0.605 µM); MIC [18]: < 0.12 µg/mL; MIC [19]: < 0.12 µg/mL; MIC [20]: < 0.12 µg/mL; MIC [21]: < 0.12 µg/mL; MIC [22]: < 0.12 µg/mL; MIC [23]: < 0.12 µg/mL; MIC ([24]; 18 hours): < 0.12 µg/mL; MIC [25]: < 0.12 µg/mL; MIC [26]: < 0.12 µg/mL; MIC [27]: < 0.12 µg/mL; MIC ([28]; 18 hours): < 0.12 µg/mL; MIC ([29]; 18 hours): < 0.12 µg/mL; MIC ([30]; 18 hours): 0.5 µg/mL (≈ 1.21 µM)

**Q.** What does the source list for `CCn1cc(C(=O)O)c(=O)c2cc(F)c(N3CCN(C)CC3)c(F)c21` [Example 61, 1-Ethyl-6,8-difluoro=1,4-dihydro-7-(4-methyl-1-piperazinyl)-4-oxo-3-quinolinecarboxylic acid]?
**A.** MIC [1, 31]: 0.03 µg/mL (≈ 0.0854 µM); MIC [2, 32]: 4 µg/mL (≈ 11.4 µM); MIC [3, 33]: 0.5 µg/mL (≈ 1.42 µM); MIC [4]: 0.06 µg/mL (≈ 0.171 µM); MIC [5]: 0.25 µg/mL (≈ 0.712 µM); MIC [6]: < 0.015 µg/mL; MIC [7]: 0.25 µg/mL (≈ 0.712 µM); MIC [8, 34]: < 0.015 µg/mL; MIC [9]: 0.25 µg/mL (≈ 0.712 µM); MIC [10, 35]: 0.25 µg/mL (≈ 0.712 µM); MIC [11]: 0.12 µg/mL (≈ 0.342 µM); MIC [12]: 0.06 µg/mL (≈ 0.171 µM); MIC [13]: 0.25 µg/mL (≈ 0.712 µM); MIC [14]: 2 µg/mL (≈ 5.69 µM); MIC [15, 36]: 2 µg/mL (≈ 5.69 µM); MIC [16]: 2 µg/mL (≈ 5.69 µM); MIC [17]: 0.5 µg/mL (≈ 1.42 µM); MIC [18]: 0.06 µg/mL (≈ 0.171 µM); MIC [19]: 0.12 µg/mL (≈ 0.342 µM); MIC [20]: 0.5 µg/mL (≈ 1.42 µM); MIC [21]: 0.03 µg/mL (≈ 0.0854 µM); MIC [22]: 0.06 µg/mL (≈ 0.171 µM); MIC [23]: 0.03 µg/mL (≈ 0.0854 µM); MIC [24, 37]: 0.06 µg/mL (≈ 0.171 µM); MIC [25]: 0.03 µg/mL (≈ 0.0854 µM); MIC [26]: 0.03 µg/mL (≈ 0.0854 µM); MIC [27]: 0.12 µg/mL (≈ 0.342 µM); MIC [28, 38]: 0.06 µg/mL (≈ 0.171 µM); MIC [29, 39]: 0.12 µg/mL (≈ 0.342 µM); MIC [30, 40]: 0.5 µg/mL (≈ 1.42 µM)

**Q.** How did the MIC [1, 31] turn out when `CCCCCCCCCCCCOCC1CN(c2cc3c(cc2F)c(=O)c(C(=O)O)cn3CC)CCN1` (stereo not drawn) [Example 74, 7-[3-[(Dodecyloxy)methyl]-1-piperazinyl]-1-ethyl-6-fluoro-1,4-dihydro-4-oxo-3-quinolinecarboxylic acid] was run?
**A.** > 256 µg/mL

**Q.** And the MIC [2, 32]?
**A.** > 256 µg/mL

**Q.** What about the MIC [3, 33] of the same compound?
**A.** 128 µg/mL (≈ 247 µM)

**Q.** And the MIC [4]?
**A.** > 256 µg/mL

**Q.** And the MIC [5]?
**A.** 128 µg/mL (≈ 247 µM)

**Q.** And the MIC [6]?
**A.** > 256 µg/mL

**Q.** And the MIC [7]?
**A.** 128 µg/mL (≈ 247 µM)

**Q.** What about the MIC [8, 34] of the same compound?
**A.** > 256 µg/mL

**Q.** What about the MIC [9] of the same compound?
**A.** 128 µg/mL (≈ 247 µM)

**Q.** And the MIC [10, 35]?
**A.** 128 µg/mL (≈ 247 µM)

**Q.** And the MIC [11]?
**A.** 32 µg/mL (≈ 61.8 µM)

**Q.** What about the MIC [12] of the same compound?
**A.** > 256 µg/mL

**Q.** What about the MIC [13] of the same compound?
**A.** 64 µg/mL (≈ 124 µM)

**Q.** And the MIC [14]?
**A.** 128 µg/mL (≈ 247 µM)

**Q.** What about the MIC [15, 36] of the same compound?
**A.** 128 µg/mL (≈ 247 µM)

**Q.** What about the MIC [16] of the same compound?
**A.** 64 µg/mL (≈ 124 µM)

**Q.** What about the MIC [17] of the same compound?
**A.** > 256 µg/mL

**Q.** And the MIC [18]?
**A.** > 256 µg/mL

**Q.** And the MIC [19]?
**A.** > 256 µg/mL

**Q.** What about the MIC [20] of the same compound?
**A.** 128 µg/mL (≈ 247 µM)

**Q.** And the MIC [21]?
**A.** > 256 µg/mL

**Q.** And the MIC [22]?
**A.** > 256 µg/mL

**Q.** And the MIC [23]?
**A.** > 256 µg/mL

**Q.** What about the MIC [24, 37] of the same compound?
**A.** > 256 µg/mL

**Q.** What about the MIC [25] of the same compound?
**A.** > 256 µg/mL

**Q.** What about the MIC [26] of the same compound?
**A.** > 256 µg/mL

**Q.** And the MIC [27]?
**A.** > 256 µg/mL

**Q.** And the MIC [28, 38]?
**A.** > 256 µg/mL

**Q.** And the MIC [29, 39]?
**A.** 128 µg/mL (≈ 247 µM)

**Q.** And the MIC [30, 40]?
**A.** > 256 µg/mL
